Where a name gives a salt, the structure may show the parent alone.

On to `Cc1c(C)n(Cc2ccco2)c2ncnc(NCCc3ccccc3)c12` [Example 32, (7-Furan-2-ylmethyl-5,6-dimethyl-7H-pyrrolo[2,3-d]pyrimidin-4-yl)-phenethyl-amine], for which the melting point (as a rule, the temperature, or range, at which the solid turns liquid) lay within 221 to 223 °C.
Compound `Cc1c(C)n(Cc2ccccc2)c2ncnc(NCCc3ccc(NS(C)(=O)=O)cc3)c12` [Example 5, N-{4-[2-(7-Benzyl-5,6-dimethyl-7H-pyrrolo[2,3-d]pyrimidin-4-ylamino)-ethyl]-phenyl}-methanesulfonamide] showed a melting point of 175.7 to 176.4 °C.
Regarding `Cc1c(C)n(Cc2ccccc2)c2ncnc(NCCc3ccc(NC(=O)c4cccc(C(F)(F)F)c4)cc3)c12` [Example 48, N-{4-[2-(7-Benzyl-5,6-dimethyl-7H-pyrrolo[2,3-d]pyrimidin-4-ylamino)-ethyl]-phenyl}-3-trifluoromethyl-benzamide], the melting point is 110 to 113 °C.
Consider `COc1ccc(CCNc2ncnc3c2c(C)c(C)n3Cc2cccc(Cl)c2)cc1OC` [Example 20, [7-(3-Chloro-benzyl)-5,6-dimethyl-7H-pyrrolo[2,3-d]pyrimidin-4-yl]-[2-(3,4-dimethoxy-phenyl)-ethyl]-amine], for which the melting point lay in the range of 118 to 120 °C.
The compound `Cc1c(C)n(Cc2ccco2)c2ncnc(NCC(O)c3ccccc3)c12` (centres unmarked) [Example 35, 2-(7-Furan-2-ylmethyl-5,6-dimethyl-7H-pyrrolo[2,3-d]pyrimidin-4-ylamino)-1-phenyl-ethanol] displayed a melting point of 167.5 to 168 °C.
For `CC(=O)Nc1ccc(CCNc2ncnc3c2c(C)c(C)n3Cc2ccco2)cc1` [Example 46, N-{4-[2-(7-Furan-2-ylmethyl-5,6-dimethyl-7H-pyrrolo[2,3-d]pyrimidin-4-ylamino)-ethyl]-phenyl}-acetamide], the melting point is 206.8 to 208.1 °C.
Compound `CC(=O)Nc1ccc(CCNc2ncnc3c2ccn3Cc2ccccc2)cc1` [Example 47, N-{4-[2-(7-Benzyl-7H-pyrrolo[2,3-d]pyrimidin-4-ylamino)-ethyl]-phenyl}-acetamide] displayed a melting point of 228 to 229.5 °C.
`Cc1c(C)n(Cc2cccc(Cl)c2)c2ncnc(NCCc3ccc(O)cc3)c12` [Example 61, 4-{2-[7-(3-Chloro-benzyl)-5,6-dimethyl-7H-pyrrolo[2,3-d]pyrimidin-4-ylamino]-ethyl}-phenol] displayed a melting point of 167.7 to 170 °C.
In the case of `Cc1c(C)n(Cc2ccco2)c2ncnc(NCCc3ccc(O)cc3)c12` [Example 59, 4-[2-(7-Furan-2-ylmethyl-5,6-dimethyl-7H-pyrrolo[2,3-d]pyrimidin-4-ylamino)-ethyl]-phenol] it was 165 to 167 °C; in that of `COc1ccc(CCNc2ncnc3c2ccn3Cc2ccccc2)cc1OC` [Example 24, (7-Benzyl-7H-pyrrolo[2,3-d]pyrimidin-4-yl)-[2-(3,4-dimethoxy-phenyl)-ethyl]-amine], 177.3 to 178.3 °C; in that of `Cc1c(C)n(CCCN(C)C)c2ncnc(NCCc3ccccc3Cl)c12` (as salt: salt) [Example 16, [2-(2-Chloro-phenyl)-ethyl]-[7-(3-dimethylamino-propyl)-5,6-dimethyl-7H-pyrrolo[2,3-d]pyrimidin-4-yl]-amine], 245 to 248 °C.
The compound `Cc1c(C)n(Cc2ccccc2)c2ncnc(NCCc3ccc(N4C(=O)c5ccccc5C4=O)cc3)c12` [Example 6, 2-{4-[2-(7-Benzyl-5,6-dimethyl-7H-pyrrolo[2,3-d]pyrimidin-4-ylamino)-ethyl]-phenyl}-isoindole-1,3-dione] gave a melting point of 219 to 221 °C.
In the case of `Cc1c(C)n(CCCN(C)C)c2ncnc(NCCc3ccccc3)c12` (as salt: salt) [Example 14, [7-(3-Dimethylamino-propyl)-5,6-dimethyl-7H-pyrrolo[2,3-d]pyrimidin-4-yl]-phenethyl-amine], the melting point lay in the range of 236 to 238 °C.
On to `Cc1c(C)n(CCCN(C)C)c2ncnc(NCC(O)c3ccccc3)c12` (centres unmarked) (as salt: salt) [Example 18, 2-[7-(3-Dimethylamino-propyl)-5,6-dimethyl-7H-pyrrolo[2,3-d]pyrimidin-4-ylamino]-1-phenyl-ethanol], for which the melting point lay in the range of 209 to 212.9 °C.
For the compound `Cc1c(C)n(Cc2ccccc2)c2ncnc(NCCc3ccc(N(C)C)cc3)c12` [Example 62, (7-Benzyl-5,6-dimethyl-7H-pyrrolo[2,3-d]pyrimidin-4-yl)-[2-(4-dimethylamino-phenyl)-ethyl]-amine], the melting point fell in the range of 95 to 96.6 °C.
With `Cc1c(C)n(Cc2cccc(Cl)c2)c2ncnc(NCCc3ccc(NC(=O)c4ccccc4)cc3)c12` [Example 44, N-(4-{2-[7-(3-Chloro-benzyl)-5,6-dimethyl-7H-pyrrolo[2,3-d]pyrimidin-4-ylamino]-ethyl}-phenyl)-benzamide], the melting point was in the range of 151 to 152.3 °C.
`Cc1c(C)n(CCCN(C)C)c2ncnc(NCCc3ccc(N)cc3)c12` (as salt: salt) [Example 12, [2-(4-Amino-phenyl)-ethyl]-[7-(3-dimethylamino-propyl)-5,6-dimethyl-7H-pyrrolo[2,3-d]pyrimidin-4-yl]-amine] had a melting point of 237.2 to 239.9 °C.
Compound `Cc1c(C)n(Cc2ccco2)c2ncnc(NCCc3cccc(F)c3)c12` [Example 33, [2-(3-Fluoro-phenyl)-ethyl]-(7-furan-2-ylmethyl-5,6-dimethyl-7H-pyrrolo[2,3-d]pyrimidin-4-yl)-amine] yielded a melting point of 89 to 90 °C.
In the case of `Cc1c(C)n(Cc2cccc(Cl)c2)c2ncnc(NCCc3cccc(F)c3)c12` [Example 19, [7-(3-Chloro-benzyl)-5,6-dimethyl-7H-pyrrolo[2,3-d]pyrimidin-4-yl]-[2-(3-fluoro-phenyl)-ethyl]-amine], the melting point lay in the range of 232 to 235 °C.
With `COc1ccc(CCNc2ncnc3c2ccn3Cc2ccccc2)cc1` [Example 13, (7-Benzyl-7H-pyrrolo[2,3-d]pyrimidin-4-yl)-[2-(4-methoxy-phenyl)-ethyl]-amine] the figure was 140 to 141 °C; with `Cc1c(C)n(Cc2ccco2)c2ncnc(NCCc3ccc(N)cc3)c12` [Example 10, [2-(4-Amino-phenyl)-ethyl]-(7-furan-2-ylmethyl-5,6-dimethyl-7H-pyrrolo[2,3-d]pyrimidin-4-yl)-amine], 150 to 151.5 °C.
In the case of `Oc1ccc(CCNc2ncnc3c2ccn3Cc2ccccc2)cc1` [Example 60, 4-[2-(7-Benzyl-7H-pyrrolo[2,3-d]pyrimidin-4-ylamino)-ethyl]-phenol], the melting point was in the range of 199.2 to 200.6 °C.
`COc1ccc(CCNc2ncnc3c2c(C)c(C)n3Cc2cccc(Cl)c2)cc1` [Example 23, [7-(3-Chloro-benzyl)-5,6-dimethyl-7H-pyrrolo[2,3-d]pyrimidin-4-yl]-[2-(4-methoxy-phenyl)-ethyl]-amine] gave a melting point of 214 to 216 °C.
With `CCN(CC)C(=O)Nc1ccc(CCNc2ncnc3c2c(C)c(C)n3Cc2ccccc2)cc1` [Example 53, 3-{4-[2-(7-Benzyl-5,6-dimethyl-7H-pyrrolo[2,3-d]pyrimidin-4-ylamino)-ethyl]-phenyl}-1,1-diethyl-urea] the figure was 138.5 to 139 °C.
Turning to `OC(CNc1ncnc2c1ccn2Cc1ccccc1)c1ccccc1` (centres unmarked) [Example 29, 2-(7-Benzyl-7H-pyrrolo[2,3-d]pyrimidin-4-ylamino)-1-phenyl-ethanol], the melting point was 195 to 197 °C.
`COc1ccc(CCNc2ncnc3c2ccn3Cc2cncc(Br)c2)cc1` [Example 38, [7-(5-Bromo-pyridin-3-ylmethyl)-7H-pyrrolo[2,3-d]pyrimidin-4-yl]-[2-(4-methoxy-phenyl)-ethyl]-amine] displayed a melting point of 100.4 to 100.7 °C.
For the compound `Cc1c(C)n(Cc2ccccc2)c2ncnc(NCCc3ccc(NC(=O)c4ccccc4)cc3)c12` [Example 50, N-{4-[2-(7-Benzyl-5,6-dimethyl-7H-pyrrolo[2,3-d]pyrimidin-4-ylamino)-ethyl]-phenyl}-benzamide], the melting point is 180 to 182 °C.
As for `COc1ccc(CCNc2ncnc3c2ccn3Cc2cncc(Br)c2)cc1OC` (as salt: salt) [Example 37, [7-(5-Bromo-pyridin-3-ylmethyl)-7H-pyrrolo[2,3-d]pyrimidin-4-yl]-[2-(3,4-dimethoxy-phenyl)-ethyl]-amine], the melting point fell in the range of 119 to 120.4 °C.
In turn, `COc1ccc(CCNc2ncnc3c2c(C)c(C)n3CCCN(C)C)cc1OC` (as salt: salt) [Example 15, [2-(3,4-Dimethoxy-phenyl)-ethyl]-[7-(3-dimethylamino-propyl)-5,6-dimethyl-7H-pyrrolo[2,3-d]pyrimidin-4-yl]-amine] showed a melting point of 156 to 158.2 °C.
In turn, `Cc1c(C)n(Cc2ccco2)c2ncnc(NCCc3ccccc3Cl)c12` [Example 31, [2-(2-Chloro-phenyl)-ethyl]-(7-furan-2-ylmethyl-5,6-dimethyl-7H-pyrrolo[2,3-d]pyrimidin-4-yl)-amine] registered a melting point of 128.9 to 129.2 °C.
In turn, `c1ccc(CCNc2ncnc3c2ccn3Cc2ccccc2)cc1` [Example 26, (7-Benzyl-7H-pyrrolo[2,3-d]pyrimidin-4-yl)-phenethyl-amine] came in with a melting point of 210 to 211.8 °C.
For the compound `Fc1cccc(CCNc2ncnc3c2ccn3Cc2ccccc2)c1` [Example 27, (7-Benzyl-7H-pyrrolo[2,3-d]pyrimidin-4-yl)-[2-(3-fluoro-phenyl)-ethyl]-amine], the melting point fell in the range of 116 to 117.5 °C.
`Cc1c(C)n(Cc2ccccc2)c2ncnc(NCCc3ccc(NC(=O)Nc4ccc(F)cc4F)cc3)c12` [Example 7, 1-{4-[2-(7-Benzyl-5,6-dimethyl-7H-pyrrolo[2,3-d]pyrimidin-4-ylamino)-ethyl]-phenyl}-3-(2,4-difluoro-phenyl)-urea] showed a melting point of 208 to 209.2 °C.
For the compound `Cc1c(C)n(Cc2ccccc2)c2ncnc(NCCc3cccc(F)c3)c12` [Example 43, (7-Benzyl-5,6-dimethyl-7H-pyrrolo[2,3-d]pyrimidin-4-yl)-[2-(3-fluoro-phenyl)-ethyl]-amine], the melting point was 237.6 to 240 °C.
On to `Clc1ccccc1CCNc1ncnc2c1ccn2Cc1cncc(Br)c1` [Example 36, [7-(5-Bromo-pyridin-3-ylmethyl)-7H-pyrrolo[2,3-d]pyrimidin-4-yl]-[2-(2-chloro-phenyl)-ethyl]-amine], for which the melting point lay within 114 to 115 °C.

(Values after patent publication US10344032B2, “Agents for treating neurogenic inflammation and neuropathic hyperalgesia related disorders” (PÉCSI TUDOMÁNYEGYETEM, priority 2014, dated 2019).)
